Source: patent publication US6737383B1, “Herbicidal oxadiazolidines” (priority 1999, dated 2004)

What was measured:
cocklebur = test: Test B pre/postemergence cocklebur; format: in vivo, Xanthium strumarium
Summary of the method: (§1)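 Herbicidal effect was estimated by eye on a ten-point control scale after plants spent twelve to sixteen days in a greenhouse following soil or foliar treatment. Foliar sprays targeted plants at one to four leaves; all doses were formulated in a non-phytotoxic solvent with surfactant.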

bamyardgrass = test: Test B flood test barnyardgrass; format: in vivo, Echinochloa crus-galli; conditions: for Plant response rating, Barnyardgrass (0 to 10 scale, 0 is no effect, 10 is complete control) / Barnyardgrass plant response rating (0 to 10 scale, 0 is no effect, 10 is complete control): visual evaluation after twelve to sixteen days; for Barnyardgrass plant response rating (0 to 10 scale, 0 is no effect, 10 is complete control): under heading Pre-emergence
Summary of the method: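 Plants were grown to the 2-leaf stage before treatment with test chemical, then held in a greenhouse for twelve to sixteen days. Injury was visually rated against untreated controls on a 0–10 scale, where 0 is no effect and 10 is complete control.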

giant foxtail = test: Test B pre/postemergence giant foxtail; format: in vivo, Setaria faberii
Summary of the method: as §1

morningglory = test: Test B pre/postemergence morningglory; format: in vivo, Ipomoea hederacea
Summary of the method: as §1

[1] = Postemergence, Rate 125 g/ha, scale 0 to 10, 0 is no effect, 10 is complete control
[2] = Postemergence, Rate 250 g/ha, scale 0 to 10, 0 is no effect, 10 is complete control
[3] = Postemergence, Rate 500 g/ha, scale of 0 to 10 where 0 is no effect and 10 is complete control
[4] = Preemergence, Rate 62 g/ha, scale 0 to 10 (0 no effect, 10 complete control)
[5] = Preemergence, Rate 125 g/ha, scale of 0 to 10 where 0 is no effect and 10 is complete control
[6] = Preemergence, Rate 250 g/ha, scale of 0 to 10 where 0 is no effect and 10 is complete control
[7] = Preemergence, Rate 500 g/ha, scale of 0 to 10 where 0 is no effect and 10 is complete control
[8] = Rate 62 g/ha, Postemergence, scale of 0 to 10 where 0 is no effect and 10 is complete control
[9] = Rate 62 g/ha, flood test species, Pre-emergence
[10] = Rate 125 g/ha, flood test species
[11] = Rate 250 g/ha, Pre-emergence, flood-test species, scale 0 to 10, 0 is no effect, 10 is complete control
[12] = Rate 500 g/ha, Pre-emergence, flood test species, scale 0 to 10 (0 no effect, 10 complete control)
[13] = Preemergence, Rate 250 g/ha, scale 0 to 10, 0 is no effect, 10 is complete control
[14] = Preemergence, Rate 500 g/ha, scale 0 to 10, 0 is no effect, 10 is complete control
[15] = Postemergence (flood test), Rate 125 g/ha, scale 0 to 10, 0 is no effect, 10 is complete control
[16] = Postemergence section (flood test species), Rate 500 g/ha, scale of 0 to 10 where 0 is no effect and 10 is complete control
[17] = Rate 62 g/ha, Postemergence (flood test species), scale of 0 to 10 where 0 is no effect and 10 is complete control
[18] = flood test species, listed under Postemergence, Rate 250 g/ha, scale 0 to 10, 0 is no effect, 10 is complete control
[19] = Rate 125 g/ha, Postemergence, scale 0 to 10, 0 is no effect, 10 is complete control
[20] = Rate 125 g/ha, Postemergence section (flood test species), scale 0 to 10, 0 is no effect, 10 is complete control
[21] = Postemergence, Rate 250 g/ha, scale 0 to 10

Compound	Plant response rating, Cocklebur (cocklebur; [1])	Plant response rating, Cocklebur (cocklebur; [2])	Cocklebur plant response rating (cocklebur; [3])	Plant response rating, Cocklebur (cocklebur; [4])	Plant response rating, Cocklebur (cocklebur; [5])	Cocklebur plant response rating (cocklebur; [8])	Plant response rating, Giant foxtail (giant foxtail; [2])	Giant foxtail plant response rating (giant foxtail; [3])	Plant response rating, Giant foxtail (giant foxtail; [4])	Plant response rating, Giant foxtail (giant foxtail; [5])	Giant foxtail plant response rating (giant foxtail; [8])	Plant response rating, Morningglory (morningglory; [2])	Morningglory plant response rating (morningglory; [3])	Plant response rating, Morningglory (morningglory; [4])	Plant response rating, Morningglory (morningglory; [5])	Cocklebur plant response rating (cocklebur; [13])	Cocklebur plant response rating (cocklebur; [14])	Giant foxtail plant response rating (giant foxtail; [13])	Giant foxtail plant response rating (giant foxtail; [14])	Morningglory plant response rating (morningglory; [13])	also measured
CC(C)N(C(=O)n1oc(=O)[nH]c1=O)c1ccc(F)cc1F [Compound 391]	0	0	0	0	0	0	0	0	0	0	0	0	0	0	0						Cocklebur plant response rating (cocklebur; [6]): 0; Cocklebur plant response rating (cocklebur; [7]): 0; Plant response rating, Barnyardgrass (0 to 10 scale, 0 is no effect, 10 is complete control) (bamyardgrass; [9]): 0; Barnyardgrass plant response rating (0 to 10 scale, 0 is no effect, 10 is complete control) (bamyardgrass; [10]): 0; Barnyardgrass plant response rating (bamyardgrass; [11]): 0; Barnyardgrass plant response rating (bamyardgrass; [12]): 0; Plant response rating, Giant foxtail (giant foxtail; [1]): 0; Giant foxtail plant response rating (giant foxtail; [6]): 0; Giant foxtail plant response rating (giant foxtail; [7]): 0; Morningglory plant response rating (morningglory; [6]): 0; Morningglory plant response rating (morningglory; [7]): 0; Morningglory plant response rating (morningglory; [8]): 0
CC(C)N(C(=O)n1oc(=O)n(C(C)Cl)c1=O)c1ccc(F)cc1 (stereo not drawn) [Compound 393]	0	0	0	0	0	0	9	9	1	9	5	0	0	0	0						Cocklebur plant response rating (cocklebur; [6]): 0; Cocklebur plant response rating (cocklebur; [7]): 0; Plant response rating, Barnyardgrass (0 to 10 scale, 0 is no effect, 10 is complete control) (bamyardgrass; [9]): 0; Barnyardgrass plant response rating (0 to 10 scale, 0 is no effect, 10 is complete control) (bamyardgrass; [10]): 0; Barnyardgrass plant response rating (bamyardgrass; [11]): 0; Barnyardgrass plant response rating (bamyardgrass; [12]): 0; Plant response rating, Giant foxtail (giant foxtail; [1]): 8; Giant foxtail plant response rating (giant foxtail; [6]): 10; Giant foxtail plant response rating (giant foxtail; [7]): 10; Morningglory plant response rating (morningglory; [6]): 0; Morningglory plant response rating (morningglory; [7]): 2; Morningglory plant response rating (morningglory; [8]): 0
CC(C)N(C(=O)n1oc(=O)n(CCCC(F)(F)F)c1=O)c1ccc(F)cc1 [Compound 398]	0	0	0	0	0	0	9	9	10	10	3	3	8	0	0	0	0	10	10	0	Plant response rating, Barnyardgrass (bamyardgrass; [15]): 0; Barnyardgrass plant response rating (bamyardgrass; [16]): 0; Barnyardgrass plant response rating (bamyardgrass; [17]): 0; Plant response rating, Barnyardgrass (bamyardgrass; [18]): 0; Plant response rating, Giant foxtail (giant foxtail; [1]): 8; Morningglory plant response rating (morningglory; [14]): 0; Morningglory plant response rating (morningglory; [8]): 2
C=CC[Si](C)(C)Cn1c(=O)on(C(=O)N(c2ccc(Cl)cc2)C(C)C)c1=O [Compound 414]	0	0	0	0	0	0	6	9	2	9	3	7	8	0	0	0	0	10	10	0	Plant response rating, Barnyardgrass (0 to 10 scale, 0 is no effect, 10 is complete control) (bamyardgrass; [9]): 0; Barnyardgrass plant response rating (0 to 10 scale, 0 is no effect, 10 is complete control) (bamyardgrass; [10]): 0; Barnyardgrass plant response rating (bamyardgrass; Rate 250 g/ha, Pre-emergence (flood test species), scale 0 to 10, 0 is no effect, 10 is complete control): 0; Barnyardgrass plant response rating (bamyardgrass; [12]): 0; Morningglory plant response rating (morningglory; [14]): 0
CSCCn1c(=O)on(C(=O)N(c2ccccc2)C(C)C)c1=O [Compound 419]	0	0	0	0	0	0	1	6	0	1	0	5	5	0	0	0	0	2	5	1	Plant response rating, Barnyardgrass (bamyardgrass; [15]): 0; Barnyardgrass plant response rating (bamyardgrass; [16]): 0; Barnyardgrass plant response rating (bamyardgrass; [17]): 0; Plant response rating, Barnyardgrass (bamyardgrass; [18]): 0; Plant response rating, Giant foxtail (giant foxtail; [1]): 0; Morningglory plant response rating (morningglory; [14]): 2
CC(C)N(C(=O)n1oc(=O)n(CCl)c1=O)c1ccc(Cl)cc1 [Compound 422]		0	0	0	0	0	0	0	0	0	0	0	0	0	0	0	0	0	0	0	Cocklebur plant response rating (cocklebur; [19]): 0; Barnyardgrass plant response rating (bamyardgrass; [16]): 0; Barnyardgrass plant response rating (bamyardgrass; [17]): 0; Barnyardgrass plant response rating (bamyardgrass; [20]): 0; Plant response rating, Barnyardgrass (bamyardgrass; [18]): 0; Giant foxtail plant response rating (giant foxtail; [19]): 0; Morningglory plant response rating (morningglory; [14]): 0; Morningglory plant response rating (morningglory; [19]): 0
CC(C)N(C(=O)n1oc(=O)n(CC2=NOCCC2)c1=O)c1ccccc1 [Compound 430]			1	0	0	0		9	10	10	6		3	0	0	0	0	10	10	0	Cocklebur plant response rating (cocklebur; [21]): 0; Cocklebur plant response rating (cocklebur; [19]): 0; Barnyardgrass plant response rating (bamyardgrass; Postemergence block (flood test species), Rate 250 g/ha, scale 0 to 10): 0; Barnyardgrass plant response rating (bamyardgrass; [16]): 0; Barnyardgrass plant response rating (bamyardgrass; [17]): 0; Barnyardgrass plant response rating (bamyardgrass; [20]): 0; Giant foxtail plant response rating (giant foxtail; [21]): 9; Giant foxtail plant response rating (giant foxtail; [19]): 8; Morningglory plant response rating (morningglory; [21]): 3; Morningglory plant response rating (morningglory; [14]): 0; Morningglory plant response rating (morningglory; [19]): 2
